Assay results as given in patent publication US9474790B2, “Stable, protracted GLP-1/glucagon receptor co-agonists for medical use” (Novo Nordisk A/S, priority 2013, dated 2016).
Numbered stars: 1 amine (or outer) side, 2 acyl side, 3 side chain; on linkers, the order of the positions; unused ones are H or OH. Bridge positions count the residues as written; N and C are the ends. Square brackets hold non-standard residues; d marks the D form. Side chains are listed from the residue outwards. Peptide text beside a SMILES is read from it. I, II: the chains in the order shown. * marks the point of attachment. C18 diacid = O=C(O)CCCCCCCCCCCCCCCCC(=O)*; γGlu = O=C(O)[C@H](CCC(=O)[*:2])N[*:1]; AEEA = NCCOCCOCC(=O)O; Aib = CC(C)(N)C(=O)O

Columns and labels:
[1] = Thioflavin T (ThT) fibrillation assay for physical stability; assay type: physicochemical; conditions: 250 μM in 10 mM HEPES buffer, pH 7.5, 37° C., shaking 960 rpm
Method in brief: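 Peptide at 250 μM in 10 mM HEPES pH 7.5 with 1 μM ThT, at 37° C with 960 rpm orbital shaking. Fluorescence (ex 444/em 485 nm) read every 20 min after 10 min pre-incubation; sigmoidal fit gives lag time (t0−2τ) and kapp (1/τ). Recovery is RP-HPLC peptide in the centrifuged, 0.22 μm-filtered supernatant as % of initial.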

[2] = Chemical stability assessment by RP-UPLC; assay type: physicochemical; conditions: 333 μM, 8 mM phosphate buffer pH 7.3, 37° C. vs 5° C.
Method in brief: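 Purity loss = (purity after 14 days at 5° C. minus that at 37° C.) relative to the 5° C. value, purity being main-peak area % by RP-UPLC with UV at 215 nm. Samples were 333 μM in 8 mM phosphate, pH 7.3; gradient adjusted for outlying retention times.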

Structure (SMILES) | THT assay Lag time (Ex. 76) [1] [h] | Purity loss; 14 days at 37° C. [2] [%]
CC(C)C[C@H](NC(=O)[C@H](Cc1ccc(O)cc1)NC(=O)[C@H](CCCCN)NC(=O)[C@H](CO)NC(=O)[C@H](CC(C)C)NC(=O)[C@H](CC(=O)O)NC(=O)[C@H](CO)NC(=O)[C@@H](NC(=O)[C@H](Cc1ccccc1)NC(=O)[C@@H](NC(=O)CNC(=O)[C@H](CCC(N)=O)NC(=O)C(C)(C)NC(=O)[C@@H](N)Cc1c[nH]cn1)[C@@H](C)O)[C@@H](C)O)C(=O)N[C@@H](CCC(=O)O)C(=O)N[C@@H](CO)C(=O)N[C@@H](CCCCN)C(=O)N[C@@H](CCCNC(=N)N)C(=O)N[C@@H](C)C(=O)N[C@@H](CCCNC(=N)N)C(=O)N[C@@H](CCC(=O)O)C(=O)N[C@@H](Cc1ccccc1)C(=O)N[C@H](C(=O)N[C@@H](CCC(N)=O)C(=O)N[C@@H](Cc1c[nH]c2ccccc12)C(=O)N[C@@H](CC(C)C)C(=O)N[C@@H](CC(C)C)C(=O)N[C@@H](CCCCNC(=O)CNC(=O)[C@H](CO)NC(=O)[C@H](CCC(=O)O)NC(=O)CNC(=O)[C@H](CO)NC(=O)CC[C@H](NC(=O)CC[C@H](NC(=O)CCCCCCCCCCCCCCCCC(=O)O)C(=O)O)C(=O)O)C(=O)N[C@H](C(N)=O)[C@@H](C)O)C(C)C [Example 25, N^ε28-[2-[[(2S)-2-[[(2S)-4-carboxy-2-[[2-[[(2S)-2-[[(4S)-4-carboxy-4-[[(4S)-4-carboxy-4-(17-carboxyheptadecanoylamino)butanoyl]amino]butanoyl]amino]-3-hydroxypropanoyl]amino]acetyl]amino]butanoyl]amino]-3-hydroxypropanoyl]amino]acetyl]-[Aib2,Leu10,Glu15,Lys17,Arg20,Glu21,Leu27,Lys28]-Glucagon amide] (I: H-H[Aib]QGTFTSDLSKYLESKRAREFVQWLLKT-NH2 / II: {C18 diacid-γGlu-γGlu}-SGESG; amide I:28-II:C; N-terminus assumed) | 45 | 1
CC(C)C[C@H](NC(=O)[C@H](CC(=O)O)NC(=O)[C@H](CC(C)C)NC(=O)[C@H](Cc1ccc(O)cc1)NC(=O)[C@H](CCCCN)NC(=O)[C@H](CO)NC(=O)[C@H](CC(C)C)NC(=O)[C@H](CC(=O)O)NC(=O)[C@H](CO)NC(=O)[C@@H](NC(=O)[C@H](Cc1ccccc1)NC(=O)[C@@H](NC(=O)CNC(=O)[C@H](CCC(N)=O)NC(=O)C(C)(C)NC(=O)[C@@H](N)Cc1c[nH]cn1)[C@@H](C)O)[C@@H](C)O)C(=O)N[C@@H](CCCCN)C(=O)N[C@@H](CCCNC(=N)N)C(=O)N[C@@H](C)C(=O)N[C@@H](CCCNC(=N)N)C(=O)N[C@@H](CCC(=O)O)C(=O)N[C@@H](Cc1ccccc1)C(=O)N[C@H](C(=O)N[C@@H](CCC(N)=O)C(=O)N[C@@H](Cc1c[nH]c2ccccc12)C(=O)N[C@@H](CC(C)C)C(=O)N[C@@H](CC(C)C)C(=O)N[C@@H](CCCCNC(=O)CC[C@H](NC(=O)CC[C@H](NC(=O)COCCOCCNC(=O)COCCOCCNC(=O)CC[C@H](NC(=O)CCCCCCCCCCCCCCCCC(=O)O)C(=O)O)C(=O)O)C(=O)O)C(=O)N[C@H](C(N)=O)[C@@H](C)O)C(C)C [Example 26, N^ε28-[(4S)-4-carboxy-4-[[(4S)-4-carboxy-4-[[2-[2-[2-[[2-[2-[2-[[(4S)-4-carboxy-4-(17-carboxyheptadecanoylamino)butanoyl]amino]ethoxy]ethoxy]-acetyl]amino]ethoxy]ethoxy]acetyl]amino]butanoyl]amino]butanoyl]-[Aib2,Leu10,Leu16,Lys17,Arg20,Glu21, Leu27,Lys28]-Glucagon amide] (H-H[Aib]QGTFTSDLSKYLDLKRAREFVQWLLK([γGlu-γGlu-AEEA-AEEA-γGlu-C18 diacid])T-NH2) | 45 | 2
CC(C)C[C@H](NC(=O)[C@H](Cc1ccc(O)cc1)NC(=O)[C@H](CCCCN)NC(=O)[C@H](CO)NC(=O)[C@H](CC(C)C)NC(=O)[C@H](CC(=O)O)NC(=O)[C@H](CO)NC(=O)[C@@H](NC(=O)[C@H](Cc1ccccc1)NC(=O)[C@@H](NC(=O)CNC(=O)[C@H](Cc1c[nH]cn1)NC(=O)C(C)(C)NC(=O)[C@@H](N)Cc1c[nH]cn1)[C@@H](C)O)[C@@H](C)O)C(=O)N[C@@H](CCC(=O)O)C(=O)N[C@@H](CO)C(=O)N[C@@H](CCCCN)C(=O)N[C@@H](CCCNC(=N)N)C(=O)N[C@@H](C)C(=O)N[C@@H](CCCNC(=N)N)C(=O)N[C@@H](CCC(=O)O)C(=O)N[C@@H](Cc1ccccc1)C(=O)N[C@H](C(=O)N[C@@H](CCC(N)=O)C(=O)N[C@@H](Cc1c[nH]c2ccccc12)C(=O)N[C@@H](CC(C)C)C(=O)N[C@@H](CC(C)C)C(=O)N[C@@H](CCCCNC(=O)CC[C@H](NC(=O)CC[C@H](NC(=O)COCCOCCNC(=O)COCCOCCNC(=O)CC[C@H](NC(=O)CCCCCCCCCCCCCCCCC(=O)O)C(=O)O)C(=O)O)C(=O)O)C(=O)N[C@H](C(N)=O)[C@@H](C)O)C(C)C [Example 27, N^ε28-[(4S)-4-carboxy-4-[[(4S)-4-carboxy-4-[[2-[2-[2-[[2-[2-[2-[[(4S)-4-carboxy-4-(17-carboxyheptadecanoylamino)butanoyl]amino]ethoxy]ethoxy]acetyl]amino]ethoxy]ethoxy]acetyl]amino]butanoyl]amino]butanoyl]-[Aib2,His3,Leu10,Glu15,Lys17,Arg20,Glu21,Leu27, Lys28]-Glucagon amide] (H-H[Aib]HGTFTSDLSKYLESKRAREFVQWLLK([γGlu-γGlu-AEEA-AEEA-γGlu-C18 diacid])T-NH2; N-terminus assumed) | 42 | 5
CC(C)C[C@H](NC(=O)[C@H](Cc1ccc(O)cc1)NC(=O)[C@H](CCCCN)NC(=O)[C@H](CO)NC(=O)[C@H](CC(C)C)NC(=O)[C@H](CC(=O)O)NC(=O)[C@H](CO)NC(=O)[C@@H](NC(=O)[C@H](Cc1ccccc1)NC(=O)[C@@H](NC(=O)CNC(=O)[C@H](Cc1c[nH]cn1)NC(=O)C(C)(C)NC(=O)[C@@H](N)Cc1c[nH]cn1)[C@@H](C)O)[C@@H](C)O)C(=O)N[C@@H](CCC(=O)O)C(=O)N[C@@H](CO)C(=O)N[C@@H](CCCCN)C(=O)N[C@@H](CCCNC(=N)N)C(=O)N[C@@H](C)C(=O)N[C@@H](CCCNC(=N)N)C(=O)N[C@@H](CCC(=O)O)C(=O)N[C@@H](Cc1ccccc1)C(=O)N[C@H](C(=O)N[C@@H](CCC(N)=O)C(=O)N[C@@H](Cc1c[nH]c2ccccc12)C(=O)N[C@@H](CC(C)C)C(=O)N[C@@H](CC(C)C)C(=O)N[C@@H](CCCCNC(=O)CC[C@H](NC(=O)CC[C@H](NC(=O)CC[C@H](NC(=O)CCCCCCCCCCCCCCCCC(=O)O)C(=O)O)C(=O)O)C(=O)O)C(=O)N[C@H](C(N)=O)[C@@H](C)O)C(C)C [Example 34, N^ε28-[(4S)-4-carboxy-4-[[(4S)-4-carboxy-4-[[(4S)-4-carboxy-4-(17-carboxyheptadecanoylamino)butanoyl]amino]butanoyl]amino]butanoyl]-[Aib2,His3,Leu10,Glu15,Lys17,Arg20,Glu21,Leu27,Lys28]-Glucagon amide] (H-H[Aib]HGTFTSDLSKYLESKRAREFVQWLLK([γGlu-γGlu-γGlu-C18 diacid])T-NH2; N-terminus assumed) | 45 | 5
